These results are taken from US20040242671A1, “Use of 2-oxo-1-pyrrolidine derivatives for the preparation of a drug” (priority 2001, published 2004).

Holding throughout (assay type): in vivo, marmosets (Callithrix jacchus)
Assay [1] relates to MPTP-lesioned marmoset model of Parkinson's disease. As to the kind of experiment: L-DOPA-induced dyskinesia score, MPTP-lesioned marmoset (Example 1). The conditions noted are these: for Dyskinesia: first hour post drug administration, vs L-DOPA + vehicle. How it is done: (§1) This study was designed to investigate whether levetiracetam has anti-dyskinetic activity in the 1-methyl-4-phenyl-1,2,3,6-tetrahydropyridine (MPTP)-lesioned marmoset model of Parkinson's disease. The effect of levetiracetam on L-3,4-dihydroxyphenylalanine (L-DOPA)-induced dyskinesias and alleviation of parkinsonism symptoms was investigated.
(§2) The study was performed on seven adult marmosets (Callithrix jacchus) bred in a closed colony. The marmosets were rendered parkinsonian by subcutaneous injection of 2 mg/kg MPTP for 5 consecutive days. The marmosets were allowed to recover for 18 weeks until their parkinsonism became stable. The degree of activity and disability before and after MPTP treatment was assessed using a combination of scales that measure locomotor activity, mobility, bradykinesia and posture. Animals were treated with L-DOPA (12.5 mg/kg b.i.d. for 6 weeks) to prime them to elicit dyskinesia.
(§3) All drugs were administered orally in a volume of 5 ml/kg via a syringe in the animal's home cage. The animals were immediately transferred to the experimental cage (60 cm×55 cm×75 cm, with the perch 25 cm from floor of cage) for behavioural assessment. Vehicle was apple juice in all cases.
3)Dyskinesia—non-parametric measures based on the following scale Dyskinesia score: 0=Absent, 1=Mild, fleeting, 2=Moderate, not interfering with normal activity, 3=Marked, at times interfering with normal activity, 4=Severe, continuous, replacing normal activity.
Behaviour was assessed for 6 hours post drug administration. Behavioural test 1, activity, was assessed every 5 minutes for 6 hours post drug administration. Behavioural tests 2 and 3, parkinsonian disability and dyskinesia, respectively, were assessed for 10 minutes every 30 minutes over the course of 6 hours, by post hoc analysis of video-recordings by an observer blinded to the treatment. The score given in each 10 minutes time period represents the maximum score achieved during that time period.
Table 1 outlines the randomised treatment schedule i.e. three doses of levetiracetam drug in combination with a single dose of L-DOPA. The actions of each of these three combination therapies were compared with that of L-DOPA plus the appropriate vehicle. Thus, a total of four treatments were given.

Assay [2] shares this test system. As to the kind of experiment: Parkinsonian disability with Ropinirole, MPTP-lesioned marmoset (Example 3). As to conditions: for Parkinsonian disability: Levetiracetam 13 mg/kg + Ropinirole 3.75 mg/kg. How it is done: This study was designed to investigate whether Levetiracetam has a potential as an adjunctive anti-parkinsonian agent to dopamine replacement therapy in the 1-methyl-4-phenyl-1,2,3,6-tetrahydropyridine (MPTP)-lesioned marmoset model of Parkinson's disease. The effect of Levetiracetam on Ropinirole alleviation of parkinsonism symptoms was investigated. The study was performed on six adult marmosets (Callithrix jacchus; 4 female, 2 male). The marmosets were rendered parkinsonian by subcutaneous injection of 2 mg/kg MPTP for 5 consecutive days. The marmosets were allowed to recover for 18 weeks until their parkinsonism was stable. The degree of activity and disability before and after MPTP treatment were assessed using a combination of scales that measure locomotor activity, mobility, bradykinesia and posture. Animals were treated with L-DOPA 12 mg/kg b.i.d. for 6 weeks. After this time, animals were used for assessment of potential symptomatic antiparkinsonian therapy. All drugs were administered orally in a volume of 5 ml/kg via a syringe in the animal's home cage. The animals were immediately transferred to an experimental cage (60 cm×55 cm×75 cm, with the perch 25 cm from floor of cage) for behavioural assessment. Vehicle was apple juice in all cases. The doses were 3.75 mg/kg of Ropinirole in combination with Levetiracetam at 13, 30 and 60 mg/kg. Behaviour was assessed for 6 hours post drug administration. […] Behavioural test 1 (activity) was assessed every 5 minutes for 6 hours post drug administration. Behavioural tests 2 (parkinsonian disability) was assessed for 10 minutes every 30 minutes over the course of 6 hours, by post hoc analysis of video-recordings by an observer blinded to the treatment. The score given/achieved in each 10 minute time period was presented.

Assay [3] has the same test system. As to the kind of experiment: Parkinsonian disability score with L-DOPA, MPTP-lesioned marmoset (Example 1). As to conditions: for Disability scores: levetiracetam 13, 30 and 60 mg/kg + L-DOPA 12 mg/kg, p>0.05. As for the experimental part: as §1, §2, §3
2) Parkinsonian disability—non-parametric measures based on the following scales
a) Range of movement score: 0=no movement, 1=movement of head on the floor of the cage, 2=movement of limbs, but no locomotion, on the floor of the cage, 3=movement of head or trunk on wall of cage or perch, 4=movement of limbs, but no locomotion, on wall of cage or perch, 5=walking around floor of cage or eating from hopper on floor, 6=hopping on floor of cage, 7=climbing onto wall of cage or perch, 8=climbing up and down the walls of the cage or along perch, 9=running, jumping, climbing between cage walls/perch/roof, uses limbs through a wide range of motion and activity.
b) Bradykinesia score: 0=normal speed and initiation of movement, 1=mild slowing of movement, 2=moderate slowing, difficulty initiating and maintaining movement, marked freezing, 3=akinetic, unable to move, with prolonged freezing episodes
c) Postural abnormality score: 0=normal, upright, holds head up, normal balance, 1=abnormal, crouched, face down, may lose balance. […]
Behaviour was assessed for 6 hours post drug administration. Behavioural test 1, activity, was assessed every 5 minutes for 6 hours post drug administration. Behavioural tests 2 and 3, parkinsonian disability and dyskinesia, respectively, were assessed for 10 minutes every 30 minutes over the course of 6 hours, by post hoc analysis of video-recordings by an observer blinded to the treatment. […]

As for `CC[C@@H](C(N)=O)N1CCCC1=O` [levetiracetam, (S)-α-ethyl-2-oxo-1-pyrrolidineacetamide], the Dyskinesia result in assay [1] (levetiracetam 13 mg/kg + L-DOPA 12 mg/kg oral, p<0.01) is “significantly reduced”; in assay [1] (levetiracetam 30 mg/kg + L-DOPA 12 mg/kg oral, p<0.05) it was “significantly reduced”; in assay [1] (levetiracetam 60 mg/kg + L-DOPA 12 mg/kg oral, p<0.01) it was “significantly reduced”. In addition, the Dyskinesia scores entry in assay [1] (levetiracetam 13, 30 and 60 mg/kg + L-DOPA 12 mg/kg, any time-point after one hour post drug administration, p>0.05) is given as “no significant differences”. Moreover, the “Potentiation of the alleviation of parkinsonism by Ropinirole” value is on record as “significantly potentiated” in assay [2] (Levetiracetam 13 mg/kg + Ropinirole 3.75 mg/kg oral), “significantly potentiated” in assay [2] (Levetiracetam 30 mg/kg + Ropinirole 3.75 mg/kg oral) and “not” in assay [2] (Levetiracetam 60 mg/kg + Ropinirole 3.75 mg/kg oral). For the same compound, the Parkinsonian disability result is listed as “significantly reduced” in assay [2] (during 3-4 hour time period, P<0.05) and “significantly reduced” in assay [2] (over the experiment as a whole, P<0.05). In assay [2] (Levetiracetam 30 mg/kg + Ropinirole 3.75 mg/kg, during the 0-1 hour time period, P<0.05), the Range of movement entry is “significantly increased”. The Disability scores result in assay [3] (any time-point after one hour post drug administration) and in assay [3] (first hour post drug administration) was “no significant differences” throughout. Also, the “Reversal of parkinsonian symptoms at peak effect, compared with L-DOPA monotherapy” value in assay [3] (levetiracetam 13 to 60 mg/kg + L-DOPA 12 mg/kg) is on record as “same magnitude”.
